Consider five molecules from ChEMBL document CHEMBL1201862, “PubChem BioAssay data set” (2004).

Holding throughout (format): functional
Experiment [1] deals with Tyrosine-protein kinase BTK (Homo sapiens, UniProt Q06187).
For experiment [2], the target named is Mitogen-activated protein kinase 9 (Homo sapiens, UniProt P45984).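 Further: value from a kinome panel profiling assay, MAPK9 panel entry.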
Experiment [3] concerns the target MAP/microtubule affinity-regulating kinase 3 (Homo sapiens, UniProt P27448).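 Further: MARK3 affinity measured as one member of a kinome panel.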
Experiment [4] has as its target High affinity nerve growth factor receptor (Homo sapiens, UniProt P04629).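 Further: NTRK1 tested as one member of a kinome-wide profiling panel.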
The target in experiment [5] is Glycogen synthase kinase-3 alpha (Homo sapiens, UniProt P49840).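 Further: GSK3A result taken from a broad kinome-wide kinase panel.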
Experiment [6] concerns the target Mitogen-activated protein kinase kinase kinase kinase 2 (Homo sapiens, UniProt Q12851).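 Further: measured as one member of a kinome-wide kinase panel, with MAP4K2 as the panel entry.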
Experiment [7] deals with Vascular endothelial growth factor receptor 2 (Homo sapiens, UniProt P35968).
The target in experiment [8] is Insulin-like growth factor 1 receptor (Homo sapiens, UniProt P08069). Nature of the experiment: Navigating the Kinome. Panel member name: IGF1R.
Experiment [9] concerns the target BDNF/NT-3 growth factors receptor (Homo sapiens, UniProt Q16620).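 Further: NTRK2 measured as one member of a broad kinome-wide kinase profiling panel.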
In experiment [10] the target is Mitogen-activated protein kinase kinase kinase kinase 4 (Homo sapiens, UniProt O95819).
The next experiment concerns the target T1, Protein RecA (Mycobacterium tuberculosis, UniProt P9WHJ3).
T1 sequence (P9WHJ3 whole entry): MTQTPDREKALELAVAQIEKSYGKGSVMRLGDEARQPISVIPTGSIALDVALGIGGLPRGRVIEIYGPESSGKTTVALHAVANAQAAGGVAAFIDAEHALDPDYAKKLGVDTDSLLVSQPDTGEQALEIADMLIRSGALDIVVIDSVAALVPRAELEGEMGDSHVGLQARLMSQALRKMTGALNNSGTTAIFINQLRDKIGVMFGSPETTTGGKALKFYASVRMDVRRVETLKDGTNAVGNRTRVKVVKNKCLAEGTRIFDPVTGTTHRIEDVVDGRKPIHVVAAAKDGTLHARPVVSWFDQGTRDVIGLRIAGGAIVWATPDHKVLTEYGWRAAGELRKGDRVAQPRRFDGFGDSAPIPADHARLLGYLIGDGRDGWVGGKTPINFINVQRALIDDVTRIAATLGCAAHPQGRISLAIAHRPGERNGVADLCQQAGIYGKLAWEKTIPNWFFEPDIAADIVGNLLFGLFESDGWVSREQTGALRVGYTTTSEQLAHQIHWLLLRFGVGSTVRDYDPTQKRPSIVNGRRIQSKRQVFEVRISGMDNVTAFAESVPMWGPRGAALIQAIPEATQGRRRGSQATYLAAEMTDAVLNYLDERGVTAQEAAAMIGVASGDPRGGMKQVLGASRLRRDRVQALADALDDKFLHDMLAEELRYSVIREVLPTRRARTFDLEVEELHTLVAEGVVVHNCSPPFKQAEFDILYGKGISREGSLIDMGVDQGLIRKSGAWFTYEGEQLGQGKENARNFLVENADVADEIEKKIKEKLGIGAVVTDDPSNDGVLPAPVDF
As to the kind of experiment: Fluorescence Cell-Free Homogeneous Dose Retest to Identify Inhibitors of RecA-Intein Splicing Activity. [Related pubchem assays (depositor defined):AID2097, AID2223, AID489010, AID492950].

The target in experiment [11] is Glucose-6-phosphate 1-dehydrogenase (Homo sapiens, UniProt P11413). Nature of the experiment: human G6PD enzyme inhibitors, dose response, selectivity assay for P. falciparum G6PD inhibitor project, biochemical, fluorescence (AID 504792).
The target in experiment [12] is T2, Sentrin-specific protease 6 (Homo sapiens, UniProt Q9GZR1).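 Further: Luminescence-based dose-response confirmatory assay of SENP6 inhibition, following up an ultra-high-throughput screen.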
T2 sequence (Q9GZR1 whole entry): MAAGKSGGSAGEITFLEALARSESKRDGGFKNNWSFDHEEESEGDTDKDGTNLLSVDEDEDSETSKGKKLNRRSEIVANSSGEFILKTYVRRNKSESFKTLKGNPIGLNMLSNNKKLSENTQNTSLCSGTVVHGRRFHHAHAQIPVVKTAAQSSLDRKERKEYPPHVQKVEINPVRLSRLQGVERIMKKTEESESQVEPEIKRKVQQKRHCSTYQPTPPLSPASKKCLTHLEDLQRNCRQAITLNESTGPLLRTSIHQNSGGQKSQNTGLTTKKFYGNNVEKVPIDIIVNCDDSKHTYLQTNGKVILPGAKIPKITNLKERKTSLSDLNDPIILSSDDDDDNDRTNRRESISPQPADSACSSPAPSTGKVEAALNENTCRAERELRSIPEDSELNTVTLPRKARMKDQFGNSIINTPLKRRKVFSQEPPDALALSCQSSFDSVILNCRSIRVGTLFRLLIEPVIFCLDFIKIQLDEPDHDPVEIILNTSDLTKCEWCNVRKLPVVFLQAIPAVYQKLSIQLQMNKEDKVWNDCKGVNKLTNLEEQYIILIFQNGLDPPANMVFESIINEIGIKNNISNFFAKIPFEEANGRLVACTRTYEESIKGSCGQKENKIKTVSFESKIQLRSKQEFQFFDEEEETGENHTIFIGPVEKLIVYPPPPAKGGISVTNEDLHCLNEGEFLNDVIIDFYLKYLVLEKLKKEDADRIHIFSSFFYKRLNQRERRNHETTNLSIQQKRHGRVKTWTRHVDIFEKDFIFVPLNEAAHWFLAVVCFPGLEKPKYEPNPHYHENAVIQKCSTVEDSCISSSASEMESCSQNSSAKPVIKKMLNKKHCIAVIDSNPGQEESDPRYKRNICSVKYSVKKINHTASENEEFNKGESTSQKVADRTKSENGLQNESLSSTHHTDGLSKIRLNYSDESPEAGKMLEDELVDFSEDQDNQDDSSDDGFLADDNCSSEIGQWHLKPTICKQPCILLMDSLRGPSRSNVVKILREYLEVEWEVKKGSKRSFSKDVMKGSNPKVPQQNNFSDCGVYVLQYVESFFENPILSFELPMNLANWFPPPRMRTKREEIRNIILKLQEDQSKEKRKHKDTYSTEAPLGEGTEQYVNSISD

Experiment [13] has as its target T3, Sentrin-specific protease 8 (Homo sapiens, UniProt Q96LD8).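 Further: luminescence read-out of SENP8 inhibition, dose-response confirmation following an ultra-high-throughput screen.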
T3 sequence (Q96LD8 whole entry): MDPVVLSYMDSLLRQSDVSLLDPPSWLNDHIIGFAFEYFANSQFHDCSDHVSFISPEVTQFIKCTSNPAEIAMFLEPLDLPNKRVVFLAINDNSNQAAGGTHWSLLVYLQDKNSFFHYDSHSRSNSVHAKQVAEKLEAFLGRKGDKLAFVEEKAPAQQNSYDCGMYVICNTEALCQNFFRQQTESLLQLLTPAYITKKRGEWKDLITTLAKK

Structures are written as SMILES. Calls of active or inactive are those of the source.

A word on the Ki: it is a measure of affinity in units of concentration, obtained from inhibition or displacement. The EC50 is the concentration giving half of the maximal effect. By IC50 is commonly meant the concentration at which inhibition is half-maximal.

Glycogen synthase kinase-3 alpha, sequence (P49840 whole entry): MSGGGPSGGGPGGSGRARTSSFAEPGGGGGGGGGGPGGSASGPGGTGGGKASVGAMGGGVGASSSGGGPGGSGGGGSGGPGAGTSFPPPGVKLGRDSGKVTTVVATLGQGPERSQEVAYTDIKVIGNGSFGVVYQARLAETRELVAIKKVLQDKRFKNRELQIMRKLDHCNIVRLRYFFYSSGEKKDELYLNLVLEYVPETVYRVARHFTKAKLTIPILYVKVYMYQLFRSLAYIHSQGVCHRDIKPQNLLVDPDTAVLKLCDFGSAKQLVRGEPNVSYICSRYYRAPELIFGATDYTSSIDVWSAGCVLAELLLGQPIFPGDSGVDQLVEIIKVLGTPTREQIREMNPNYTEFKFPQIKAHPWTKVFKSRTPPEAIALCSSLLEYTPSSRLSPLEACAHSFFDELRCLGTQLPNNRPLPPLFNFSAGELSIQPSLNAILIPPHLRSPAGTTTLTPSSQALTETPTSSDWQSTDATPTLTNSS
Tyrosine-protein kinase BTK, sequence (Q06187 whole entry): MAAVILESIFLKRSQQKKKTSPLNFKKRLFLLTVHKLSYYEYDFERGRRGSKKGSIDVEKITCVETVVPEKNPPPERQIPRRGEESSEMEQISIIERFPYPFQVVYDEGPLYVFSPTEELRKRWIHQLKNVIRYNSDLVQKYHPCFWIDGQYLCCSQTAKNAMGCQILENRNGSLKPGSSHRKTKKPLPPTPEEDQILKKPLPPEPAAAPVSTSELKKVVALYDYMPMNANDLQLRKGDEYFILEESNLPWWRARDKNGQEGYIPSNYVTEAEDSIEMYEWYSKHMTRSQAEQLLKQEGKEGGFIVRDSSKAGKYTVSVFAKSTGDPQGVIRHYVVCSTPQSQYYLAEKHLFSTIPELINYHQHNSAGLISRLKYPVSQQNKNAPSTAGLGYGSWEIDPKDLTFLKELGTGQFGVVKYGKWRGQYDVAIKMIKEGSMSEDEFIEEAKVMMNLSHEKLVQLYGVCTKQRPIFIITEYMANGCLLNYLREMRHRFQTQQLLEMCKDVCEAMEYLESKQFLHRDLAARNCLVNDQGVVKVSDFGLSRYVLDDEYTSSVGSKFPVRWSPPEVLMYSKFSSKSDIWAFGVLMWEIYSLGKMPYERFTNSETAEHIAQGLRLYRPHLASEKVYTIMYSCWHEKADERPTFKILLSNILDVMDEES
Mitogen-activated protein kinase kinase kinase kinase 2, sequence (Q12851 whole entry): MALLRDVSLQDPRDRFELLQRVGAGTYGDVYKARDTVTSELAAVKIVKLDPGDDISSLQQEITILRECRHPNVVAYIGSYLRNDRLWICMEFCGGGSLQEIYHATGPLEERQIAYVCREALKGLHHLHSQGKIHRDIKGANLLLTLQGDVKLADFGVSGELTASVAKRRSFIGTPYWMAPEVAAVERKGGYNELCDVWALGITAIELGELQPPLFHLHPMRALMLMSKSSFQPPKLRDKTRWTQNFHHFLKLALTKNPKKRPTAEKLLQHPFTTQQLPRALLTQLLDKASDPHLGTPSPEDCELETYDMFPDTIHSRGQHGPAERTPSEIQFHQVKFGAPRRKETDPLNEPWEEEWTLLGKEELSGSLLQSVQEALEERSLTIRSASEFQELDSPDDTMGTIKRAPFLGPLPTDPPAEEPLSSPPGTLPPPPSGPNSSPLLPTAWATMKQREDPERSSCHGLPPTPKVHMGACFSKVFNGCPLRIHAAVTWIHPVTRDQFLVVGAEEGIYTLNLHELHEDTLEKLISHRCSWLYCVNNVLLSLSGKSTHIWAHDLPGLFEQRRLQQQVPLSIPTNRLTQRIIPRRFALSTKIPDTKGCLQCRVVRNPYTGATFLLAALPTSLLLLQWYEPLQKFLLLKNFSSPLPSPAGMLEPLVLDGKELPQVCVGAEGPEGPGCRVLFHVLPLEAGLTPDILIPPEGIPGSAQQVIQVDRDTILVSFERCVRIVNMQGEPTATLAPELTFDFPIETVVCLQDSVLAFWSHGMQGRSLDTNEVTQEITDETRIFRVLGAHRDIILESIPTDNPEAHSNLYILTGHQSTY
Vascular endothelial growth factor receptor 2, sequence (P35968 whole entry): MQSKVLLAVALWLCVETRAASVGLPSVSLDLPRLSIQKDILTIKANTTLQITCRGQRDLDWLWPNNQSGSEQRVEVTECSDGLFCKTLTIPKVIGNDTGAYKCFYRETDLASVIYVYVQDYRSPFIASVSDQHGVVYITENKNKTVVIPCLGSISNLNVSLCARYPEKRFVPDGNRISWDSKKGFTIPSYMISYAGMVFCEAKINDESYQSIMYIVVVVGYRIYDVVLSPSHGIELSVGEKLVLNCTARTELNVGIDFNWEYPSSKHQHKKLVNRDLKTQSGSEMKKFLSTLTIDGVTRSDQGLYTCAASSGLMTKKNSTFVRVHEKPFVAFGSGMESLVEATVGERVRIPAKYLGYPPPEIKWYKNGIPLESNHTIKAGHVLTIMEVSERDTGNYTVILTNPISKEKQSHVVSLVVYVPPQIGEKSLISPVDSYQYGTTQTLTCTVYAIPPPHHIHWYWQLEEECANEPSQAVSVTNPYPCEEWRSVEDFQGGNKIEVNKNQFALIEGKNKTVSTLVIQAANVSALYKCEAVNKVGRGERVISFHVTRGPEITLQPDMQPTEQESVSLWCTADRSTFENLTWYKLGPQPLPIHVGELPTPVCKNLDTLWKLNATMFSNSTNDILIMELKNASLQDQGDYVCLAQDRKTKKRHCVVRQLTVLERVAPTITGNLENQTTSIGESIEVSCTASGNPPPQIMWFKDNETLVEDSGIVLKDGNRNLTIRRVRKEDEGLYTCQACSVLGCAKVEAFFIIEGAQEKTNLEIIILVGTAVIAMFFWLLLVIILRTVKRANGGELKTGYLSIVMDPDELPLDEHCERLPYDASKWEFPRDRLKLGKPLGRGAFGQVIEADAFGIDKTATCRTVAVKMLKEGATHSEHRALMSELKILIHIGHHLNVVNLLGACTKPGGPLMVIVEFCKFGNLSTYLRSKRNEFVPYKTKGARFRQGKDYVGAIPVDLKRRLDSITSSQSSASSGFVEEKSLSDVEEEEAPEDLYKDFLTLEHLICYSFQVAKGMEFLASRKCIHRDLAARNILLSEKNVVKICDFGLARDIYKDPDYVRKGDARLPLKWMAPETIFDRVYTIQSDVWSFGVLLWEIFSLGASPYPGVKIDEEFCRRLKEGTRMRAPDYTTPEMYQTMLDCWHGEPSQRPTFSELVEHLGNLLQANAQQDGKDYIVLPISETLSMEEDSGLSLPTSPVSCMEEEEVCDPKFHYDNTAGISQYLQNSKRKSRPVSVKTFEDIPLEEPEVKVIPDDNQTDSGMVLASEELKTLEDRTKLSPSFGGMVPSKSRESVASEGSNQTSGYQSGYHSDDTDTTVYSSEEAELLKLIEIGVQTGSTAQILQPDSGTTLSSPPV
Insulin-like growth factor 1 receptor, sequence (P08069 31-736 limits assumed): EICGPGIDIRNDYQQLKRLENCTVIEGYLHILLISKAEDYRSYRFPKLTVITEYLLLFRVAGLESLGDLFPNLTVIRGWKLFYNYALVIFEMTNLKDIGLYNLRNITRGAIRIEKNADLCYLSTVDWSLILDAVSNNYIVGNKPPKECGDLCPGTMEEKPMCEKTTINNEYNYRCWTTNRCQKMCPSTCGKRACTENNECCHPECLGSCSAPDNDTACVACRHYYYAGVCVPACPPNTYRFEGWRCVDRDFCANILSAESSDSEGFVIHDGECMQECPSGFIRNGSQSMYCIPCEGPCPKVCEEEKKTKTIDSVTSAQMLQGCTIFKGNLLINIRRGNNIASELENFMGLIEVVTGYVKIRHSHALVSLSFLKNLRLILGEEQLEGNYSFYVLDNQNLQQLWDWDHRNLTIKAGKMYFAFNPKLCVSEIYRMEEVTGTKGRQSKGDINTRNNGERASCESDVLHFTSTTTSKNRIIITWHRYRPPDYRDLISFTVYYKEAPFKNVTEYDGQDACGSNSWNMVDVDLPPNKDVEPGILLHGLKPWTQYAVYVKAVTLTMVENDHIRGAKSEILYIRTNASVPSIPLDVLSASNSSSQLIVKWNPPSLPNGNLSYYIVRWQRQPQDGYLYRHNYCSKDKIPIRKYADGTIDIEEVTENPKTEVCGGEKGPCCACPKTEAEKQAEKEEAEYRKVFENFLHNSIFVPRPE
Insulin-like growth factor 1 receptor, sequence (P08069 741-1367 limits assumed): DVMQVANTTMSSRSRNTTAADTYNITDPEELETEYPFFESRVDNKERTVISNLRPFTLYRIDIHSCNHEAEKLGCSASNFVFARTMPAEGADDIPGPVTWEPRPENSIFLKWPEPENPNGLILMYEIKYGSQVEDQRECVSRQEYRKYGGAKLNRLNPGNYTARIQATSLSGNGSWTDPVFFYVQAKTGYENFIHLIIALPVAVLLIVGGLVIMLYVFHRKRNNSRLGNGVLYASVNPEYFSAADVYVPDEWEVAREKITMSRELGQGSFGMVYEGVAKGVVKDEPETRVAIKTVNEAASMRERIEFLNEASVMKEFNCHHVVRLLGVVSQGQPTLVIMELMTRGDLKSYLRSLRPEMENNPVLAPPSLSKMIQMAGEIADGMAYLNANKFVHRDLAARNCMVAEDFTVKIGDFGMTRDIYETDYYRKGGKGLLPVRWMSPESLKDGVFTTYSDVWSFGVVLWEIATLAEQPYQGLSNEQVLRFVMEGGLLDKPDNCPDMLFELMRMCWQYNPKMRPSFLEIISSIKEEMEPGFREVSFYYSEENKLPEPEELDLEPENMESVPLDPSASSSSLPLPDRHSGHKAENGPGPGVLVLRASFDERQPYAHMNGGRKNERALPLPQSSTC
Mitogen-activated protein kinase 9, sequence (P45984 whole entry): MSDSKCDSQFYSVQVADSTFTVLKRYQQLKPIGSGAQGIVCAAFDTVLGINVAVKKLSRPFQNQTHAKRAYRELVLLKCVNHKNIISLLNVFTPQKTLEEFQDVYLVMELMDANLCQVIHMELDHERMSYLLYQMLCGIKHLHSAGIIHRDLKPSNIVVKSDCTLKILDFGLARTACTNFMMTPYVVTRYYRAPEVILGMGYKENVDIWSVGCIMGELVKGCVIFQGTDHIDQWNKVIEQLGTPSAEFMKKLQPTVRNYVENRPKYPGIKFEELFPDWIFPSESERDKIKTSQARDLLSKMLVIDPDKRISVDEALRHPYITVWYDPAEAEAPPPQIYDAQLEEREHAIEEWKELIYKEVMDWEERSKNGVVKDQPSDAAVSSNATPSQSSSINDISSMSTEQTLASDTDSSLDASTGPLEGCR

For the molecule `CCn1c(-c2nonc2N)nc2cncc(C(=O)N3CCC(N)C3)c21` (stereo not drawn), the Ki is > 6310 nM (inactive) in experiment [1]; > 3980 nM (inactive) in [2]; 2000 nM (active) in experiment [3]; > 3160 nM (inactive) in [4]; 398 nM (active) in [5]; > 2510 nM (inactive) in [6]. Moreover, the Ki is > 2000 nM (inactive) in experiment [7], > 2510 nM (inactive) in [8], > 3980 nM (inactive) in [9] and > 3160 nM (inactive) in [10].
In the case of `Cc1[nH]nc2ccc(-c3cncc(OCC(N)Cc4c[nH]c5ccccc45)c3)cc12` (stereo not drawn), the Ki in experiment [1] is > 1260 nM (inactive); in experiment [2], 2000 nM (active); in experiment [3] it was 398 nM (active); in experiment [4], > 2510 nM (inactive); in [5], 126 nM (active); in experiment [6], 25.1 nM (active). Also, the Ki was 3980 nM (active) in [7], > 2000 nM (inactive) in [8], > 5010 nM (inactive) in [9] and 50.1 nM (active) in experiment [10].
In the case of `CCCCCCCCCCC[N+](C)(C)CC/C=C1/c2ccccc2Sc2ccc(Cl)cc21`, on Protein RecA, the half-maximal effective concentration (EC50) was 10100 nM (active).
For the molecule `Cc1cc(C)c[n+](C2=C([N-]S(=O)(=O)c3cccs3)C(=O)c3ccccc3C2=O)c1`, the IC50 in [11] is > 80000 nM (inactive); in experiment [12], 15100 nM (active); in experiment [13], 33400 nM (active).
With `COC(=O)c1ccccc1NC1=C/C(=N\S(=O)(=O)c2cccs2)c2ccccc2C1=O`, the IC50 in experiment [11] was 27200 nM (inactive); in experiment [12], 1860 nM (active); in [13], 41200 nM (active). The EC50 on Protein RecA is 20.8 nM (inconclusive).
